Source: patent US20080026996A1, “Selective Vpac2 Receptor Reptide Agonists” (ELI LILLY AND COMPANY, priority 2004, published 2008)
pEC50, pIC50: −log10 of the molar value. Like-named read-outs stand apart in the source and are kept apart here. Where a SMILES comes first, the peptide text is derived from it. Where no end group is shown, it is not given here. [ ]: non-standard residue; d: D form. The star is where a group is joined. Hexanoyl = CCCCCC(=O)*; Aib = CC(C)(N)C(=O)O

Tests used:
[1] = Rat serum stability studies (remaining active peptide by DiscoveRx cAMP on CHO-VPAC2 cells); format: in vitro ADME
Procedure: Store the aliquot with aprotinin at 4° C. Store the aliquot without aprotinin at 37° C. […] […] Incubate in room temperature for 30 minutes. Remove the supernatant. […] Incubate on the shaker (300 rpm) for 1 hour. Proceed as normal with the DiscoveRx kit. Include cAMP standards in column 12. Determine EC50 values from the cAMP assay data.

[2] = target: T1, human VPAC2 (Homo sapiens, UniProt P41587); assay: Alpha screen cAMP in vitro potency, human VPAC2 receptor; format: cell-based
T1 construct: expressed in transfected cells
T1 sequence (P41587 24-438): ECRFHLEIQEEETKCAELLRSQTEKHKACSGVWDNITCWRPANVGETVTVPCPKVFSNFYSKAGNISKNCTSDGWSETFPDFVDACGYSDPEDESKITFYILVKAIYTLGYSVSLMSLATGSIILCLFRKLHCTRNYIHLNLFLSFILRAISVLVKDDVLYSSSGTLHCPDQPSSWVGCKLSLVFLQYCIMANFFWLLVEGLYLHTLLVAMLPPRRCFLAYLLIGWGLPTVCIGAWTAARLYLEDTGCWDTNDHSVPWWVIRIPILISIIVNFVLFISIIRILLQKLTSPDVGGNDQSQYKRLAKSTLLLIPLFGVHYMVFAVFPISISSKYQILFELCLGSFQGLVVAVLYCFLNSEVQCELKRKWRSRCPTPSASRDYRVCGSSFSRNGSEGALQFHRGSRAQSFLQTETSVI
Summary of the method: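 Dissociated cells, 50,000 per point in stimulation buffer, were incubated with stimuli and AlphaScreen acceptor beads for 60 min.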

[3] = target: T2, human PAC1 (Homo sapiens, UniProt P41586); assay: Filter binding assay, membranes of cells transiently transfected with human PAC1, 125I-labeled PACAP-27 tracer (Table 2); design: expressed in transfected cells
T2 sequence (P41586 21-468): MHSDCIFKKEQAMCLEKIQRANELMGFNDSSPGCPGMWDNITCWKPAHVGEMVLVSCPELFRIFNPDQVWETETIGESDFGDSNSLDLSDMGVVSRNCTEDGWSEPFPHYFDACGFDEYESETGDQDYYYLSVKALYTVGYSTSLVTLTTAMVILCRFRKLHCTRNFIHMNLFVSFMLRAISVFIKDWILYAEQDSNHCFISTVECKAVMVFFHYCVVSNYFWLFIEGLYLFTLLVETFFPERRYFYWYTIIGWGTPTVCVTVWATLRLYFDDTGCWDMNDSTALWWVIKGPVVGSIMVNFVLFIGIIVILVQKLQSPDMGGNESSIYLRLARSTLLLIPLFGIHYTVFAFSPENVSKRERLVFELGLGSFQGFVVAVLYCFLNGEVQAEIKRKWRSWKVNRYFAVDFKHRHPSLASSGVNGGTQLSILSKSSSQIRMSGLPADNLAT
Summary of the method: (§1)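 Competition binding of agonists against radiotracer on receptor membranes (2.5 μg) in 25 mM HEPES pH 7.4 with 0.5% protease-free BSA, about 40000 cpm tracer, 1 hour with shaking. Bound tracer was separated by filtration on PEI-presoaked, BSA-blocked glass-fibre filters, washed and counted by scintillation.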

[4] = target: T1, human VPAC2; assay: Filter binding assay, membranes of stable VPAC2 cell line, 125I-labeled VIP tracer (Table 2)
Summary of the method: as §1

[5] = target: T3, human VPAC1 (Homo sapiens, UniProt P32241); assay: Filter binding assay, membranes of cells transiently transfected with human VPAC1, 125I-labeled VIP tracer (Table 2); design: expressed in transfected cells
T3 sequence (P32241 31-457): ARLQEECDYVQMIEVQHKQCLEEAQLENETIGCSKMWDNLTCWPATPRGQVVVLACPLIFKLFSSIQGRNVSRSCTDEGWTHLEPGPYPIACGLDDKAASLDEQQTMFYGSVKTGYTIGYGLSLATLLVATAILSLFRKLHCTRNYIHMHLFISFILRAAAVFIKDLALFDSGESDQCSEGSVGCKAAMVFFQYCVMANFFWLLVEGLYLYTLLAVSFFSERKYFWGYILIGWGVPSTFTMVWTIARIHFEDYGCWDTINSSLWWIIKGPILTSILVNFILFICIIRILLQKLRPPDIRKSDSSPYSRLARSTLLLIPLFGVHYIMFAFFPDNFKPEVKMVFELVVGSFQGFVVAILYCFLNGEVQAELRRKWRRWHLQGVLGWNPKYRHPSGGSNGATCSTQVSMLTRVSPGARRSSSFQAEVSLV
Summary of the method: as §1

[6] = cAMP generation, single result from two analyses performed in a single run, read-out: Human VPAC2 Receptor: Alpha Screen EC50
[7] = read-out: Human PAC1 Receptor Binding
[8] = read-out: Human VPAC2 Receptor Binding
[9] = read-out: Human VPAC1 Receptor Binding

Compound	Rat Serum Stability (estimated purity in % after 18 hours) [1] [%]	pEC50 [2, 6]	pIC50 [3, 7]	pIC50 [4, 8]	pIC50 [5, 9]	pIC50 [3]	pIC50 [4]	pIC50 [5]	pEC50 [2]
CCCCCC(=O)N[C@@H](Cc1c[nH]cn1)C(=O)N[C@@H](CO)C(=O)N[C@@H](CC(=O)O)C(=O)N[C@@H](C)C(=O)N[C@H](C(=O)N[C@@H](Cc1ccccc1)C(=O)N[C@H](C(=O)N[C@@H](CC(=O)O)C(=O)N[C@@H](CC(N)=O)C(=O)N[C@@H](Cc1ccc(O)cc1)C(=O)N[C@H](C(=O)N[C@@H](CCCNC(=N)N)C(=O)N[C@@H](CC(C)C)C(=O)N[C@@H](CCCNC(=N)N)C(=O)N[C@@H](CCCNC(=N)N)C(=O)N[C@@H](CCC(N)=O)C(=O)N[C@H](C(=O)N[C@@H](C)C(=O)N[C@@H](C)C(=O)N[C@@H](CCCCN)C(=O)N[C@@H](CCCNC(=N)N)C(=O)N[C@@H](Cc1ccc(O)cc1)C(=O)N[C@@H](CC(C)C)C(=O)N[C@@H](CCC(N)=O)C(=O)N[C@@H](CO)C(=O)N[C@H](C(=O)N[C@@H](CCCNC(=N)N)C(=O)N[C@@H](CC(N)=O)C(=O)NCC(=O)NCC(=O)N1CCC[C@H]1C(=O)N[C@@H](CO)C(=O)N[C@@H](CO)C(=O)NCC(=O)N[C@@H](C)C(=O)N1CCC[C@H]1C(=O)N1CCC[C@H]1C(=O)N1CCC[C@H]1C(=O)N[C@@H](CO)C(=O)O)[C@@H](C)CC)C(C)C)[C@@H](C)O)[C@@H](C)O)C(C)C [Agonist P215] (Hexanoyl-HSDAVFTDNYTRLRRQVAAKRYLQSIRNGGPSSGAPPPS-OH; C-terminus assumed)	0.08	10.05	–	–	–	–	–	–	–
CCCCCC(=O)N[C@@H](Cc1c[nH]cn1)C(=O)N[C@@H](CO)C(=O)N[C@@H](CC(=O)O)C(=O)N[C@@H](C)C(=O)N[C@H](C(=O)N[C@@H](Cc1ccccc1)C(=O)N[C@H](C(=O)N[C@@H](CC(=O)O)C(=O)N[C@@H](CC(N)=O)C(=O)N[C@@H](Cc1ccc(O)cc1)C(=O)N[C@H](C(=O)N[C@@H](CCCNC(=N)N)C(=O)N[C@@H](CC(C)C)C(=O)N[C@@H](CCCNC(=N)N)C(=O)NC(C)(C)C(=O)N[C@@H](CCC(N)=O)C(=O)N[C@H](C(=O)N[C@@H](C)C(=O)N[C@@H](C)C(=O)NC(C)(C)C(=O)N[C@@H](CCCCN)C(=O)N[C@@H](Cc1ccc(O)cc1)C(=O)N[C@@H](CC(C)C)C(=O)N[C@@H](CCC(N)=O)C(=O)N[C@@H](CO)C(=O)N[C@H](C(=O)N[C@@H](CCCN)C(=O)N[C@@H](CCC(N)=O)C(=O)N[C@@H](CCCN)C(=O)NCC(=O)NCC(=O)N1CCC[C@H]1C(=O)N[C@@H](CO)C(=O)N[C@@H](CO)C(=O)NCC(=O)N[C@@H](C)C(=O)N1CCC[C@H]1C(=O)N1CCC[C@H]1C(=O)N1CCC[C@H]1C(=O)N[C@@H](CO)C(=O)O)[C@@H](C)CC)C(C)C)[C@@H](C)O)[C@@H](C)O)C(C)C [Agonist P356]	45.17	–	–	–	–	–	–	–	–
Hexanoyl-HSDAVFTDNYTRLRKQVAAKKYLQSWKNKRYGGPSSGAPPPS [Agonist P110]	–	9.89	6.49	10.00	6.37	–	–	–	–
Hexanoyl-HSDAVFTDNYTRLRKQVAAKKYLQSYKNKRYGGPSSGAPPPS [Agonist P111]	–	9.47	6.59	9.72	6.52	–	–	–	–
Hexanoyl-HSDAVFTDNYTRLRKQVAAKKYLQS[Aib]KNKRYGGPSSGAPPPS [Agonist P188]	–	9.49	6.15	9.54	8.21	–	–	–	–
Hexanoyl-HSDAVFTDNYTRLRKQVAAKKYLQTIKNKRYGGPSSGAPPPS [Agonist P115]	–	9.70	6.72	10.00	6.57	–	–	–	–
Hexanoyl-HSDAVFTDNYTRLRKQVAAKKYLQVIKNKRYGGPSSGAPPPS [Agonist P116]	–	9.92	6.84	9.13	6.43	–	–	–	–
Hexanoyl-HSDAVFTDNYTRLRKQVAAKKYLQWIKNKRYGGPSSGAPPPS [Agonist P117]	–	9.70	6.61	9.29	6.35	–	–	–	–
Hexanoyl-HSDAVFTDNYTRLRKQVAAKKYLQYIKNKRYGGPSSGAPPPS [Agonist P127]	–	9.66	6.68	9.64	6.54	–	–	–	–
Hexanoyl-HSDAVFTDNYTRLRKQVAAKKYLQ[Aib]IKNKRYGGPSSGAPPPS [Agonist P187]	–	9.40	6.53	9.77	6.87	–	–	–	–
Hexanoyl-HSDAVFTDNYTRLRKQVAAKK[Aib]LQSIKNKRYGGPSSGAPPPS [Agonist P228]	<5.00	–	–	–	–	–	–	–	–
Hexanoyl-HSDAVFTDNYTRLRKQVAGKKYLQSIKNKRYGGPSSGAPPPS [Agonist P275]	–	9.49	6.20	9.42	6.25	–	–	–	–
Hexanoyl-HSDAVFTDNYTRLRRQVAARRYLQSIRNRRYGGPSSGAPPPS [Agonist P98]	–	9.82	7.02	9.77	7.16	–	–	–	–
Hexanoyl-HSDAVFTDNYTRL[Aib]KQVAAKQYLQSIKNKRYGGPSSGAPPPS [Agonist P249]	12.9	–	–	–	–	–	–	–	–
Hexanoyl-HSDAVFTDNYT[Aib]LR[Aib]QVAA[Aib]KYLQSIKNKRYGGPSSGAPPPS [Agonist P345]	20.23	–	–	7.72	< 5.52	–	–	–	–
Hexanoyl-HSDAVFTDQYTRLLAKLALQKYLQSIKQKRYGGPSSGAPPPS [Agonist P192]	–	9.74	4.84	9.28	5.84	–	–	–	–
Hexanoyl-HSDA[dV]FTDNYTRLRKQVAAKKYLQSIKNKRYGGPSSGAPPPS [Agonist P210]	<0.91	–	–	9.17	6.40	–	–	–	–
Hexanoyl-HSDIVFTDNYTRLRKQVAAKKYLQSIKNKRYGGPSSGAPPPS [Agonist P221]	0.87	–	–	–	–	–	–	–	–
Hexanoyl-HSDLVFTDNYTRLRKQVAAKKYLQSIKNKRYGGPSSGAPPPS [Agonist P223]	1.52	–	–	–	–	–	–	–	–
Hexanoyl-HSEAVFTDNYTRLRKQVAAKKYLQSIKNKRYGGPSSGAPPPS [Agonist P224]	–	9.85	6.68	9.46	6.68	–	–	–	–
Hexanoyl-H[Aib]DAVFTDNYTRLRKQVAAKKYLQSIKNKRYGGPSSGAPPPS [Agonist P166]	–	9.82	6.90	9.34	6.61	–	–	–	–
Hexanoyl-H[dA]DAVFTDNYTRLRKQVAAKKYLQSIKNKRYGGPSSGAPPPS [Agonist P101]	–	9.68	6.56	9.74	7.03	–	–	–	–
MHSDAVFTDNYTRLLAKLALQKYLQSIKNKRYGGPSSGAPPPS [Agonist P140]	–	–	–	–	–	6.31	8.71	5.94	10.15
